Results from ChEMBL document CHEMBL5154935, “Design, Synthesis, and Biological Evaluation of Novel Evodiamine Derivatives as Potential Antihepatocellular Carcinoma Agents” (J Med Chem, 2022).

Experiments:
HepG2 = experiment: Antiproliferative activity against human HepG2 cells treated for 72 hrs by MTT assay; format: functional, cell-based; settings: HepG2, 72 h
Huh-7 = experiment: Antiproliferative activity against human Huh-7 cells treated for 72 hrs by MTT assay; format: functional, cell-based; settings: Huh-7, 72 h
SK-HEP1 = experiment: Antiproliferative activity against human SK-HEP1 cells treated for 72 hrs by MTT assay; format: functional, cell-based; settings: SK-HEP1, 72 h
HCCLM9 = experiment: Antiproliferative activity against human HCCLM9 cells treated for 72 hrs by MTT assay; format: functional, cell-based; settings: HCCLM9, 72 h
[1] = Antiproliferative activity against human L02 cells treated for 72 hrs by MTT assay; format: toxicity, cell-based
SMMC-7721 = experiment: Antiproliferative activity against human SMMC-7721 cells treated for 72 hrs by MTT assay; format: functional, cell-based; settings: SMMC-7721, 72 h
[2] = biological target: T1, DNA topoisomerase 1 (Homo sapiens) (UniProt P11387); experiment: Inhibition of Top1 (unknown origin) assessed as inhibition of relaxation of supercoiled pBR322 plasmid DNA at 50 uM incubated for 25 mins by ethidium bromide staining based agarose gel electrophoresis analysis relative to control
T1 sequence (whole entry): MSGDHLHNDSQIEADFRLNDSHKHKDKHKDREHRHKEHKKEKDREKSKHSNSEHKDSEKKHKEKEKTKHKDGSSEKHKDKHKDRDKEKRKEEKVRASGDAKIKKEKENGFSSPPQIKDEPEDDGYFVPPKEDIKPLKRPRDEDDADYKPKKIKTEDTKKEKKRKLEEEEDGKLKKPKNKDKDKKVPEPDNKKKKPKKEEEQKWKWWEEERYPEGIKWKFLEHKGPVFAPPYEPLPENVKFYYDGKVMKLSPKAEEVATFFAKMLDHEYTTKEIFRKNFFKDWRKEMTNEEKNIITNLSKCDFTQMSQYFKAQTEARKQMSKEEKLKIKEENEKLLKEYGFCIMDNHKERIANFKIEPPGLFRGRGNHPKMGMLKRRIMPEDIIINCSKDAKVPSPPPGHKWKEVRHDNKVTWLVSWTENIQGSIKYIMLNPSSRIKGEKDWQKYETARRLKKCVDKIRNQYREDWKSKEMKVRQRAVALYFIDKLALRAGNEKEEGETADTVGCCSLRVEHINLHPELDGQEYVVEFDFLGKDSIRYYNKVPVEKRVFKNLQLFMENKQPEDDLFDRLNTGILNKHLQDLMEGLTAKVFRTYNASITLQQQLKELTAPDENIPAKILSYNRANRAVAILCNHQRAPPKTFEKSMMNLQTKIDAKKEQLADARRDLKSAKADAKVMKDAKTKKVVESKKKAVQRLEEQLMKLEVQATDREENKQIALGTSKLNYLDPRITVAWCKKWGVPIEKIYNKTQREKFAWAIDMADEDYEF

[3] = biological target: T1, DNA topoisomerase 1 (Homo sapiens); experiment: Inhibition of Top1 (unknown origin) assessed as inhibition of relaxation of supercoiled pBR322 plasmid DNA at 12.5 uM incubated for 25 mins by ethidium bromide staining based agarose gel electrophoresis analysis relative to control
[4] = biological target: DNA topoisomerase 2-alpha (Homo sapiens) (UniProt P11388); experiment: Inhibition of human Top2-alpha expressed in baculovirus assessed as inhibition of relaxation of supercoiled pBR322 plasmid DNA at 100 uM incubated for 30 mins in presence of ATP by ethidium bromide staining based agarose gel electrophoresis analysis relative to control
DNA topoisomerase 2-alpha (Homo sapiens), sequence (P11388 whole entry): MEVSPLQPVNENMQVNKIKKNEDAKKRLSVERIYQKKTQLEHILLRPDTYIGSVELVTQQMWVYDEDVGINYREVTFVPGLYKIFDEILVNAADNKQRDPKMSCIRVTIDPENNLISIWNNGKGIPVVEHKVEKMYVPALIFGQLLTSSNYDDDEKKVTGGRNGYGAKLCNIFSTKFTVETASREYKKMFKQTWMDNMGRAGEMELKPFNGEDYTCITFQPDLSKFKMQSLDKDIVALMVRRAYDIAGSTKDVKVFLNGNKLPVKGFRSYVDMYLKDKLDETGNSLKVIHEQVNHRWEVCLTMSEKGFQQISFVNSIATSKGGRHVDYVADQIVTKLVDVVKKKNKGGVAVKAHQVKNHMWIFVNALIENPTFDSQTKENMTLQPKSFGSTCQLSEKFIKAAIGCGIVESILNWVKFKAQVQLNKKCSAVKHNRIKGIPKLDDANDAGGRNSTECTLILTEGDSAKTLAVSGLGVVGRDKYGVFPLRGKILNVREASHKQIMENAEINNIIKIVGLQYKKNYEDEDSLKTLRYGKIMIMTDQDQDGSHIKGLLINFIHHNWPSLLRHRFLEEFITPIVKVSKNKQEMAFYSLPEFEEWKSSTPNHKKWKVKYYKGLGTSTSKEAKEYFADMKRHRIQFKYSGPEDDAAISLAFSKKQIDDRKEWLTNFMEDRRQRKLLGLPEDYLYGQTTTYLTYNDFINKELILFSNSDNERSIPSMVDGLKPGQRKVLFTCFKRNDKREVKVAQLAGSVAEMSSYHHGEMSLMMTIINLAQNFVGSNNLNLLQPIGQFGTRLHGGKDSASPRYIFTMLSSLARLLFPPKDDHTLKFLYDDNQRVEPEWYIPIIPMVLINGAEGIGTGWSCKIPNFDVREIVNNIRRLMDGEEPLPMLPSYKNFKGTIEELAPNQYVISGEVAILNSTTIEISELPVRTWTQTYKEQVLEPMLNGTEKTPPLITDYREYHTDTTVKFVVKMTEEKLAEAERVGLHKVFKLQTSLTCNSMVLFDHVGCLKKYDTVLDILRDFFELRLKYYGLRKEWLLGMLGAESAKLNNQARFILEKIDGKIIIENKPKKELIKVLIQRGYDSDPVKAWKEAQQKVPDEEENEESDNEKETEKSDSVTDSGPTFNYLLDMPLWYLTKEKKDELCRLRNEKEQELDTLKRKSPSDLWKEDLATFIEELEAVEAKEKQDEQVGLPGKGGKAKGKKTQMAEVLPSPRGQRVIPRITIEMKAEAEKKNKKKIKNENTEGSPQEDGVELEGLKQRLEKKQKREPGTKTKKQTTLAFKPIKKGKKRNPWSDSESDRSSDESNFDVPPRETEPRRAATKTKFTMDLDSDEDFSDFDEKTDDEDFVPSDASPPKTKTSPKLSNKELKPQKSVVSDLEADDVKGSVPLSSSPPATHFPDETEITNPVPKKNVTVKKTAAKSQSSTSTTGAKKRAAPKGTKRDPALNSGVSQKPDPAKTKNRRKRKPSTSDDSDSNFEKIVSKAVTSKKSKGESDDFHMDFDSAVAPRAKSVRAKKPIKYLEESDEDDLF

COc1ccc2[nH]c3c(c2c1)CCN1C(=O)c2cc(F)ccc2N(c2cc(F)cc(F)c2)C31 (stereo unspecified)
IC50 (HepG2): 2.91 µM
IC50 (Huh-7): 3.61 µM
IC50 (SK-HEP1): 3.97 µM
IC50 (HCCLM9): 6.34 µM
IC50 at 72 h [1]: > 6 µM
IC50 (SMMC-7721): 2.97 µM

COc1ccc2[nH]c3c(c2c1)CCN1C(=O)c2cc(F)ccc2N(c2cc(F)cc(Br)c2)C31 (stereo unspecified)
IC50 (HepG2): 4.36 µM
IC50 (SK-HEP1): 4.21 µM
IC50 (HCCLM9): 7.75 µM
IC50 at 72 h [1]: 5.97 µM
IC50 (SMMC-7721): 5.77 µM

COc1ccc2[nH]c3c(c2c1)CCN1C(=O)c2cc(F)ccc2N(c2cc(F)cc(Cl)c2)C31 (stereo unspecified)
IC50 (HepG2): 3.92 µM
IC50 (Huh-7): 4.87 µM
IC50 (SK-HEP1): 5.01 µM
IC50 (HCCLM9): 7.05 µM
IC50 at 72 h [1]: 5.44 µM
IC50 (SMMC-7721): 5.11 µM

COc1ccc2[nH]c3c(c2c1)CCN1C(=O)c2cc(F)ccc2N(c2cc(C)cc(F)c2)C31 (stereo unspecified)
IC50 (HepG2): 7.3 µM
IC50 (Huh-7): 6.99 µM
IC50 (SK-HEP1): 7.3 µM
IC50 (HCCLM9): 12 µM
IC50 at 72 h [1]: > 6 µM
IC50 (SMMC-7721): 8.15 µM

COc1ccc2[nH]c3c(c2c1)CCN1C(=O)c2cc(F)ccc2N(c2ccc(C)c(F)c2)C31 (stereo unspecified)
IC50 (HepG2): 4.62 µM
IC50 (Huh-7): 6.34 µM
IC50 (SK-HEP1): 6.96 µM
IC50 (HCCLM9): 6.62 µM
IC50 at 72 h [1]: > 6 µM
IC50 (SMMC-7721): 5.9 µM

COc1ccc2[nH]c3c(c2c1)CCN1C(=O)c2cc(F)ccc2N(c2ccc(F)c(F)c2)C31 (stereo unspecified)
IC50 (HepG2): 1.34 µM
IC50 (Huh-7): 1.19 µM
IC50 (SK-HEP1): 1.35 µM
IC50 (HCCLM9): 2.67 µM
IC50 at 72 h [1]: 3.46 µM
IC50 (SMMC-7721): 1.48 µM

CCOc1ccc2[nH]c3c(c2c1)CCN1C(=O)c2cc(F)cc(F)c2N(c2cccc(F)c2)C31 (stereo unspecified)
IC50 (HepG2): 0.85 µM
IC50 (Huh-7): 0.6 µM
IC50 (SK-HEP1): 1.34 µM
IC50 (HCCLM9): 0.89 µM
IC50 at 72 h [1]: 1.8 µM
inhibition [2]: 66.7%
inhibition [3]: 50.8%
inhibition [4]: 48.3%
IC50 (SMMC-7721): 0.92 µM

COc1ccc2[nH]c3c(c2c1)CCN1C(=O)c2cc(F)ccc2N(c2cc(F)ccc2Cl)C31 (stereo unspecified)
IC50 (HepG2): 8.71 µM
IC50 (Huh-7): 11.5 µM
IC50 (SK-HEP1): 16.5 µM
IC50 (HCCLM9): > 18 µM
IC50 at 72 h [1]: > 6 µM
IC50 (SMMC-7721): 10.9 µM

COc1ccc2[nH]c3c(c2c1)CCN1C(=O)c2cc(F)c(F)cc2N(c2cccc(F)c2)C31 (stereo unspecified)
IC50 (HepG2): 6.98 µM
IC50 (Huh-7): 7.69 µM
IC50 (SK-HEP1): 7.21 µM
IC50 (HCCLM9): 10.8 µM
IC50 at 72 h [1]: > 6 µM
IC50 (SMMC-7721): 7.14 µM

COc1ccc2[nH]c3c(c2c1)CCN1C(=O)c2cc(F)ccc2N(c2ccc(Br)c(F)c2)C31 (stereo unspecified)
IC50 (HepG2): 15.9 µM
IC50 (Huh-7): > 18 µM
IC50 (SK-HEP1): > 18 µM
IC50 (HCCLM9): > 18 µM
IC50 at 72 h [1]: > 6 µM
IC50 (SMMC-7721): > 18 µM

COc1cc(F)cc(N2c3ccc(F)cc3C(=O)N3CCc4c([nH]c5ccc(OC)cc45)C32)c1 (stereo unspecified)
IC50 (HepG2): 2.91 µM
IC50 (Huh-7): 3.66 µM
IC50 (SK-HEP1): 3.15 µM
IC50 (HCCLM9): 4.21 µM
IC50 at 72 h [1]: 5.78 µM
IC50 (SMMC-7721): 3.98 µM

Cc1ccc2[nH]c3c(c2c1)CCN1C(=O)c2cc(F)cc(F)c2N(c2cccc(F)c2)C31 (stereo unspecified)
IC50 (HepG2): 0.51 µM
IC50 (Huh-7): 0.02 µM
IC50 (SK-HEP1): 0.48 µM
IC50 (HCCLM9): 0.31 µM
IC50 at 72 h [1]: 1.4 µM
inhibition [2]: 83.7%
inhibition [3]: 7.29%
inhibition [4]: 67.6%
IC50 (SMMC-7721): 0.49 µM

COc1ccc2[nH]c3c(c2c1)CCN1C(=O)c2cc(F)ccc2N(c2ccc(OC)c(F)c2)C31 (stereo unspecified)
IC50 (HepG2): 4.67 µM
IC50 (Huh-7): 4.32 µM
IC50 (SK-HEP1): 4.55 µM
IC50 (HCCLM9): 6.04 µM
IC50 at 72 h [1]: > 6 µM
IC50 (SMMC-7721): 4.38 µM

COc1ccc2[nH]c3c(c2c1)CCN1C(=O)c2cc(F)ccc2N(c2cc(F)ccc2OC)C31 (stereo unspecified)
IC50 (HepG2): > 18 µM
IC50 (Huh-7): > 18 µM
IC50 (SK-HEP1): > 18 µM
IC50 (HCCLM9): > 18 µM
IC50 at 72 h [1]: > 6 µM
IC50 (SMMC-7721): > 18 µM

COc1ccc2[nH]c3c(c2c1)CCN1C(=O)c2cc(F)ccc2N(c2ccc(Cl)c(F)c2)C31 (stereo unspecified)
IC50 (HepG2): 6.44 µM
IC50 (Huh-7): 7.68 µM
IC50 (SK-HEP1): 8.9 µM
IC50 (HCCLM9): 6.9 µM
IC50 at 72 h [1]: 2.69 µM
IC50 (SMMC-7721): 6.92 µM

CC[C@@]1(O)C(=O)OCc2c1cc1n(c2=O)Cc2cc3ccccc3nc2-1
inhibition [4]: 70.2%

COc1ccc2[nH]c3c(c2c1)CCN1C(=O)c2cc(F)cc(F)c2N(c2cccc(F)c2)C31 (stereo unspecified)
IC50 (HepG2): 0.27 µM
IC50 (Huh-7): 0.23 µM
IC50 (SK-HEP1): 0.27 µM
IC50 (HCCLM9): 39 µM
IC50 at 72 h [1]: 1.56 µM
inhibition [2]: 48.4%
inhibition [3]: 20.1%
inhibition [4]: 65.2%
IC50 (SMMC-7721): 0.35 µM

O=C1c2cc(F)cc(F)c2N(c2cccc(F)c2)C2c3[nH]c4ccccc4c3CCN12 (stereo unspecified)
IC50 (HepG2): 0.39 µM
IC50 (Huh-7): 0.03 µM
IC50 (SK-HEP1): 0.27 µM
IC50 (HCCLM9): 0.28 µM
IC50 at 72 h [1]: 0.95 µM
inhibition [2]: 94.4%
inhibition [3]: 27.7%
inhibition [4]: 52.6%
IC50 (SMMC-7721): 0.27 µM

COc1ccc2[nH]c3c(c2c1)CCN1C(=O)c2cc(F)ccc2N(c2cc(F)ccc2Br)C31 (stereo unspecified)
IC50 (HepG2): 13.1 µM
IC50 (Huh-7): 11.4 µM
IC50 (SK-HEP1): 14.7 µM
IC50 (HCCLM9): > 18 µM
IC50 at 72 h [1]: > 6 µM
IC50 (SMMC-7721): 13 µM

O=C1c2cc(F)cc(F)c2N(c2cccc(F)c2)C2c3[nH]c4ccc(Cl)cc4c3CCN12 (stereo unspecified)
IC50 (HepG2): 0.68 µM
IC50 (Huh-7): 0.29 µM
IC50 (SK-HEP1): 0.11 µM
IC50 (HCCLM9): 0.14 µM
IC50 at 72 h [1]: 1.37 µM
inhibition [2]: 90.1%
inhibition [3]: 75.4%
inhibition [4]: 65.2%
IC50 (SMMC-7721): 0.77 µM

COc1ccc2[nH]c3c(c2c1)CCN1C(=O)c2cc(F)ccc2N(c2cc(F)ccc2C)C31 (stereo unspecified)
IC50 (HepG2): 7.19 µM
IC50 (Huh-7): 11.2 µM
IC50 (SK-HEP1): 8.91 µM
IC50 (HCCLM9): > 18 µM
IC50 at 72 h [1]: > 6 µM
IC50 (SMMC-7721): 9.18 µM

COc1ccc2[nH]c3c(c2c1)CCN1C(=O)c2cc(F)ccc2N(c2cc(F)ccc2F)C31 (stereo unspecified)
IC50 (HepG2): 2.8 µM
IC50 (Huh-7): 7.75 µM
IC50 (SK-HEP1): 5.78 µM
IC50 (HCCLM9): 3.78 µM
IC50 at 72 h [1]: 4.67 µM
IC50 (SMMC-7721): 3.98 µM
